Data on two substances can be found in US12144506B2, “Methods for aneurysm treatment” (Nectero Medical, Inc., priority 2018, dated 2024).

The nature of the data set: safe delivery concentration of PGG as a function of its purity. Particulars: PGG of the stated purity; toxic impurities gallic acid and methyl gallate. An excerpt:
The concentrations of PGG which may be safely delivered to a patient may be generally proportional to the purity of the PGG. For example, gallic acid, depicted in FIG. 1B, and methyl gallate, depicted in FIG. 1C, are common cytotoxic impurities which may be removed from a source batch of PGG during the purification process. Eliminating the presence of or reducing the concentration of toxic impurities from the delivered PGG may allow higher concentrations of the PGG to be delivered due to the mitigation of the toxic side effects of impurities commonly found in isolated PGG. For instance, studies have shown that substantially 100% pure PGG may be safely delivered at concentrations up to approximately 0.330% (w/v), 95% pure PGG may be safely delivered at concentrations up to approximately 0.125% (w/v), and 85% pure PGG may be safely delivered at concentrations up to approximately 0.06% (w/v). Delivery of PGG in higher concentrations may enhance the amount of uptake of PGG by the target tissue which may increase the efficacy of the PGG treatment. Delivery of PGG in higher concentrations may increase the rate of uptake of PGG by the tissue allowing the same amount of uptake in shorter delivery times. […]

With “1,2,3,4,6-pentagalloyl glucose [85% pure PGG]”, the “concentration up to which PGG may be safely delivered” value is recorded as ≤ 0.06 % (w/v).
As to “1,2,3,4,6-pentagalloyl glucose [substantially 100% pure PGG]”, the “concentration up to which PGG may be safely delivered” value is listed as ≤ 0.330 % (w/v).
